Test results taken from patent publication US20220096507A1, “Parenteral Pharmaceutical Composition Comprising Azacitidine or Decitabine in DMSO” (Sandoz AG, priority 2020, published 2022).
Where two headings read alike, the source gives them in different places.

Tests used:
[1] = 250 mg/mL in DMSO, relative to week 0
Description: A 250 mg/mL solution of azacitidine (TEVA Sicor) in DMSO (Merck; Ph. Eur. grade quality) with a water content of less than 0.1 wt.-% was prepared and filled into (moisture proof) vials, which were subsequently sealed using rubber stoppers. […] The amount of azacitidine was analyzed using high performance liquid chromatography (HPLC) and comparing the integral of the azacitidine peak with the integral of a freshly prepared standard solution containing a predetermined amount of azacitidine.
HPLC measurements were carried out using an Agilent 1200 system (or equivalent). For detection, a UV detector (235 nm) was used. A YMC Hydrosphere C18 (250 mm*4.6 mm*[…]) column and a flow rate of 1.0 mL/min and a gradient of aq. pH 7 buffer solution (containing disodium hydrogen phosphate, orthophosphoric acid and ammonium formate)/acetonitrile from 100:0 to 40:60 were employed.

[2] = at 25° C. in water; cited from earlier work
[3] = bulk (non-pharmaceutical grade) substance, purity above 95%, Cayman leaflet; cited from earlier work

SMILES	% of azacitidine at 25° C. ([1]; water <0.1 wt.-%, day 0) [%]	% of azacitidine at 40° C. ([1]; water <0.1 wt.-%, day 0) [%]	% of azacitidine at 25° C. ([1]; day 7) [%]	% of azacitidine at 40° C. ([1]; day 7) [%]	% of azacitidine at 25° C. ([1]; day 14) [%]	% of azacitidine at 40° C. ([1]; day 14) [%]	% of azacitidine at 25° C. ([1]; day 21) [%]	% of azacitidine at 40° C. ([1]; day 21) [%]	% of azacitidine at 25° C. ([1]; day 28) [%]	% of azacitidine at 40° C. ([1]; day 28) [%]	% of azacitidine at 25° C. ([1]; day 56) [%]	% of azacitidine at 40° C. ([1]; day 56) [%]	% of azacitidine at 25° C. ([1]; day 98) [%]	% of azacitidine at 40° C. ([1]; day 98) [%]	% of azacitidine at 25° C. ([1]; day 182) [%]	% of azacitidine at 40° C. ([1]; day 182) [%]	solubility of azacitidine in water [2] [mg/mL]	solubility in bulk DMSO [3]
Nc1ncn([C@@H]2O[C@H](CO)[C@@H](O)[C@H]2O)c(=O)n1 [azacitidine, 5-azacytidine]	100	100	100	100	100	100	100	100	100	100	100	99	100	96	100	94	13.4	approximately 30 mg/mL
Nc1ncn([C@H]2C[C@H](O)[C@@H](CO)O2)c(=O)n1 [decitabine, 5-aza-2′-deoxycytidine]																		approximately 30 mg/mL
